Results as given in the NIST ThermoML archive (doi:10.1016/j.jct.2014.03.029).

Assays:
[1] = Crystal; DTA
[2] = Molar enthalpy of transition or fusion; conditions: Crystal; DSC
[3] = molar heat capacity at constant pressure; conditions: 100 kPa, Liquid, Small sample (50 mg) DSC
[4] = molar heat capacity at constant pressure; xn = mol fraction of the nth substance listed; conditions: 100 kPa, Liquid, Small sample (50 mg) DSC

c1ccc(-c2ccccc2)cc1 [biphenyl]
Conditions	Molar enthalpy of transition or fusion [kJ/mol]	Normal melting temperature [°C]
[1]	–	69.0
[2]	18.5	–

[3]
Conditions	molar heat capacity at constant pressure [J/K/mol]
353.15 K	271.56
373.15 K	280.81

c1ccc(-c2ccccc2)cc1 [biphenyl] + c1ccc(Oc2ccccc2)cc1
[4], x2 = 0
Conditions	molar heat capacity at constant pressure [J/K/mol]
353.15 K	271.56
373.15 K	280.81

c1ccc(Oc2ccccc2)cc1 [diphenyl ether]
Conditions	Molar enthalpy of transition or fusion [kJ/mol]	Normal melting temperature [°C]
[1]	–	26.98
[2]	17	–

[3]
Conditions	molar heat capacity at constant pressure [J/K/mol]
313.15 K	261.61
333.15 K	272.33
353.15 K	281.69
373.15 K	290.88

c1ccc(Oc2ccccc2)cc1 [diphenyl ether] + c1ccc(-c2ccccc2)cc1
molar heat capacity at constant pressure [J/K/mol], [4]
Conditions	x1 = 0.05	x1 = 0.15	x1 = 0.2499	x1 = 0.4	x1 = 0.55	x1 = 0.705	x1 = 0.85	x1 = 0.95	x1 = 1
293.15 K	–	–	–	–	–	263.62	–	–	–
313.15 K	–	–	–	–	271.57	271.4	267.65	262.24	261.61
333.15 K	–	–	270.37	273.51	278.25	279.18	276.55	272.24	272.33
353.15 K	272.81	277.2	279.39	282.35	285.59	286.13	285.61	281.72	281.69
373.15 K	282.42	285.5	286.99	290.38	292.44	293.24	294.5	290.87	290.88
